From patent US7569578B2, “Heterocyclic anti-migraine agents” (Bristol-Meyers Squibb Company, priority 2003, dated 2009)

The compounds below were run against T1, Human CGRP1 Receptor (Homo sapiens, UniProt O60894+Q16602) (assay: CGRP Binding Assay ([125I]-CGRP radioligand displacement, SK-N-MC membrane homogenate)). Conditions: [125I]-CGRP displacement, SK-N-MC homogenate, room temperature 2 h; read-out: Human CGRP1 Receptor IC50.
T1 construct: endogenous in cells; host or cells: SK-N-MC cells (membrane homogenate)
Description: Tissue Culture. SK-N-MC cells were grown at 37° C. in 5% CO2 as a monolayer in medium consisting of MEM with Earle's salts and L-glutamine (Gibco) supplemented with 10% fetal bovine serum (Gibco).
Cell Pellets. […] The cells were transferred from plates to polypropylene tubes (16×100 mm) and homogenized using a polytron. Homogenates were centrifuged at 32,000×g for 30 min. The pellets were resuspended in cold hypotonic lysis buffer with 0.1% mammalian protease inhibitor cocktail (Sigma) and assayed for protein concentration. The SK-N-MC homogenate was then aliquoted and stored at −80° C. until needed.
Radioligand Binding Assay. The compounds of invention were solubilized and carried through serial dilutions using 100% DMSO. Aliquots from the compound serial dilutions were further diluted 25 fold into assay buffer (50 mM Tris-Cl pH 7.5, 5 mM MgCl2, 0.005% Triton X-100) and transferred (volume 50 μl) into 96 well assay plates. […] SK-N-MC pellets were thawed, diluted in assay buffer with fresh 0.1% mammalian protease inhibitor cocktail (Sigma), and homogenized again. SK-N-MC homogenate (5 μg/well) was added in a volume of 100 μl. The assay plates were then incubated at room temperature for 2 h. Assays were stopped by addition of excess cold wash buffer (20 mM Tris-Cl pH 7.5, 0.1% BSA) immediately followed by filtration over glass fiber filters (Whatman GF/B) previously soaked in 0.5% PEI. Non-specific binding was defined with 1 μM beta-CGRP. Protein bound radioactivity was determined using a gamma or scintillation counter.

T1 sequence (Q16602 23-461): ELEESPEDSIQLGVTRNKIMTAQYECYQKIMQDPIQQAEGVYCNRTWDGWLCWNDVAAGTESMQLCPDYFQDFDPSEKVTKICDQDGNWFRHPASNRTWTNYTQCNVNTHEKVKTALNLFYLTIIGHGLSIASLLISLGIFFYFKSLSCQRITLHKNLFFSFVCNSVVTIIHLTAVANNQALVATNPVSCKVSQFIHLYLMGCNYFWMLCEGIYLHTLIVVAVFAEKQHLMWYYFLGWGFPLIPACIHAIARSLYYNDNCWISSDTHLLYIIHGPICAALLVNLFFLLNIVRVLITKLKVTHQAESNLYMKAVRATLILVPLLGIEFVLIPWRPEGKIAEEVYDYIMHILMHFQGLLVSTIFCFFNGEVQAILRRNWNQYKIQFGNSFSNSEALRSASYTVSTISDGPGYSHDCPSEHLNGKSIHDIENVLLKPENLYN
T1 sequence (O60894 27-148): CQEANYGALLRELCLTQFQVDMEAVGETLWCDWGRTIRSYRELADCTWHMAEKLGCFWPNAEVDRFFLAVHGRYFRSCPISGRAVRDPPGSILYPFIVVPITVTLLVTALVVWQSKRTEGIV

| IC50 [nM] | Compound |
| --- | --- |
| < 10 | Cc1cc(CC(NC(=O)N2CCC(N3Cc4ccccc4NC3=O)CC2)c2nccn2Cc2cccc(F)c2)cc2cn[nH]c12 (racemic) [Example 68, (±)-N-(1-(1-(3-Fluorobenzyl)-1H-imidazol-2-yl)-2-(7-methyl-1H-indazol-5-yl)ethyl)-4-(2-oxo-1,2-dihydroquinazolin-3(4H)-yl)piperidine-1-carboxamide] |
| < 10 | Cc1cc(CC(NC(=O)N2CCC(N3Cc4ccccc4NC3=O)CC2)c2nccn2Cc2cc(F)cc(F)c2)cc2cn[nH]c12 (racemic) [Example 69, (±)-N-(1-(1-(3,5-Difluorobenzyl)-1H-imidazol-2-yl)-2-(7-methyl-1H-indazol-5-yl)ethyl)-4-(2-oxo-1,2-dihydroquinazolin-3(4H)-yl)piperidine-1-carboxamide] |
| < 10 | Cc1cc(CC(NC(=O)N2CCC(N3Cc4ccccc4NC3=O)CC2)c2nccn2CCc2ccccc2)cc2cn[nH]c12 (racemic) [Example 70, (±)-N-(2-(7-Methyl-1H-indazol-5-yl)-1-(1-phenethyl-1H-imidazol-2-yl)ethyl)-4-(2-oxo-1,2-dihydroquinazolin-3(4H)-yl)piperidine-1-carboxamide] |
| < 10 | Cc1cc(CC(NC(=O)N2CCC(N3Cc4ccccc4NC3=O)CC2)c2nccn2Cc2ccccc2F)cc2cn[nH]c12 (racemic) [Example 71, (±)-N-(1-(1-(2-Fluorobenzyl)-1H-imidazol-2-yl)-2-(7-methyl-1H-indazol-5-yl)ethyl)-4-(2-oxo-1,2-dihydroquinazolin-3(4H)-yl)piperidine-1-carboxamide] |
| < 10 | Cc1cc(CC(NC(=O)N2CCC(N3Cc4ccccc4NC3=O)CC2)c2nccn2Cc2ccc(F)cc2)cc2cn[nH]c12 (racemic) [Example 72, (±)-N-(1-(1-(4-Fluorobenzyl)-1H-imidazol-2-yl)-2-(7-methyl-1H-indazol-5-yl)ethyl)-4-(2-oxo-1,2-dihydroquinazolin-3(4H)-yl)piperidine-1-carboxamide] |
| < 10 | Cc1cc(CC(NC(=O)N2CCC(N3Cc4ccccc4NC3=O)CC2)c2nccn2Cc2ccncc2)cc2cn[nH]c12 (racemic) [Example 73, (±)-N-(2-(7-Methyl-1H-indazol-5-yl)-1-(1-(pyridin-4-ylmethyl)-1H-imidazol-2-yl)ethyl)-4-(2-oxo-1,2-dihydroquinazolin-3(4H)-yl)piperidine-1-carboxamide] |
| < 10 | Cc1cc(CC(NC(=O)N2CCC(N3Cc4ccccc4NC3=O)CC2)c2nccn2Cc2cccc(C#N)c2)cc2cn[nH]c12 (racemic) [Example 74, (±)-N-(1-(1-(3-Cyanobenzyl)-1H-imidazol-2-yl)-2-(7-methyl-1H-indazol-5-yl)ethyl)-4-(2-oxo-1,2-dihydroquinazolin-3(4H)-yl)piperidine-1-carboxamide] |
| < 10 | Cc1cc(CC(NC(=O)N2CCC(N3Cc4ccccc4NC3=O)CC2)c2nccn2Cc2ccc(C(C)(C)C)cc2)cc2cn[nH]c12 (racemic) [Example 75, (±)-N-(1-(1-(4-tert-Butylbenzyl)-1H-imidazol-2-yl)-2-(7-methyl-1H-indazol-5-yl)ethyl)-4-(2-oxo-1,2-dihydroquinazolin-3(4H)-yl)piperidine-1-carboxamide] |
| < 10 | Cc1cc(CC(NC(=O)N2CCC(N3Cc4ccccc4NC3=O)CC2)c2nccn2Cc2cccc(C(=O)O)c2)cc2cn[nH]c12 (racemic) [Example 76, (±)-3-((2-(2-(7-Methyl-1H-indazol-5-yl)-1-(4-(2-oxo-1,2-dihydroquinazolin-3(4H)-yl)piperidine-1-carboxamido)ethyl)-1H-imidazol-1-yl)methyl)benzoic acid] |
| < 10 | Cc1cc(CC(NC(=O)N2CCC(N3Cc4ccccc4NC3=O)CC2)c2nccn2Cc2cccc(C(N)=O)c2)cc2cn[nH]c12 (racemic) [Example 77, (±)-N-(1-(1-(3-Carbamoylbenzyl)-1H-imidazol-2-yl)-2-(7-methyl-1H-indazol-5-yl)ethyl)-(2-oxo-1,2-dihydroquinazolin-3(4H)-yl)piperidine-1-carboxamide] |
| < 10 | Cc1cc(CC(NC(=O)N2CCC(N3Cc4ccccc4NC3=O)CC2)c2nccn2-c2ccccc2[N+](=O)[O-])cc2cn[nH]c12 (racemic) [Example 79, (±)-N-(2-(7-Methyl-1H-indazol-5-yl)-1-(1-(2-nitrophenyl)-1H-imidazol-2-yl)ethyl)-4-(2-oxo-1,2-dihydroquinazolin-3(4H)-yl)piperidine-1-carboxamide] |
| 100 to 1000 | Cc1cc(CC(NC(=O)N2CCC(N3Cc4cccc(F)c4NC3=O)CC2)c2nnn[nH]2)cc2cn[nH]c12 (racemic) [Example 80, (±)-4-(8-Fluoro-2-oxo-1,2-dihydroquinazolin-3 [4H]-yl)-N-(2{7-methyl-1H-indazol-5-yl}-1-{1H-tetrazol-5-yl}ethyl)piperidin-1-carboxamide] |
| < 10 | Cc1cc(CC(NC(=O)N2CCC(N3Cc4cccc(F)c4NC3=O)CC2)c2nnnn2CC2CCNCC2)cc2cn[nH]c12 (racemic) [Example 81, (±)-4-(8-Fluoro-2-oxo-1,2-dihydroquinazolin-3(4H)-yl)-N-(2-[7-methyl-1H-indazol-5-yl]-1-[1-(piperidin-4-ylmethyl)-1H-tetrazol-5-yl]ethyl)piperidin-1-carboxamide] |
| 10 to 100 | Cc1cc(CC(NC(=O)N2CCC(N3Cc4cccc(F)c4NC3=O)CC2)c2nnn(CC3CCNCC3)n2)cc2cn[nH]c12 (racemic) [Example 82, (±)-4-(8-Fluoro-2-oxo-1,2-dihydroquinazolin-3(4H)-yl)-N-(2-[7-methyl-1H-indazol-5-yl]-1-[2-(piperidin-4-ylmethyl)-1H-tetrazol-5-yl]ethyl)piperidin-1-carboxamide] |
| < 10 | Cc1cc(CC(NC(=O)N2CCC(N3Cc4cccc(F)c4NC3=O)CC2)c2nnc3ccccn23)cc2cn[nH]c12 (racemic) [Example 83, (±)-N-(1-([1,2,4]Triazolo [4,3-a]pyridin-3-yl)-2-(7-methyl-1H-indazol-5-yl)ethyl)-4-(8-fluoro-2-oxo-1,2-dihydroquinazolin-3(4H)-yl)piperidine-1-carboxamide] |
| < 10 | Cc1cc(CC(NC(=O)N2CCC(N3Cc4ccccc4NC3=O)CC2)c2nnnn2CC(C)(C)C)cc2cn[nH]c12 (racemic) [Example 84, (±)-N-(2-(7-Methyl-1H-indazol-5-yl)-1-(1-neopentyl-1H-tetrazol-5-yl)ethyl)-4-(2-oxo-1,2-dihydroquinazolin-3(4H)-yl)piperidine-1-carboxamide] |
| < 10 | Cc1cc(CC(NC(=O)N2CCC(N3Cc4ccccc4NC3=O)CC2)c2ncc(Br)[nH]2)cc2cn[nH]c12 (racemic) [Example 86, (±)-N-(1-(4-Bromo-1H-imidazol-2-yl)-2-(7-methyl-1H-indazol-5-yl)ethyl)-4-(2-oxo-1,2-dihydroquinazolin-3(4H)-yl)piperidine-1-carboxamide] |
| < 10 | Cc1cc(CC(NC(=O)N2CCC(N3Cc4ccccc4NC3=O)CC2)c2nc(Br)c(Br)[nH]2)cc2cn[nH]c12 (racemic) [Example 87, (±)-N-(1-(4,5-Dibromo-1H-imidazol-2-yl)-2-(7-methyl-1H-indazol-5-yl)ethyl)-4-(2-oxo-1,2-dihydroquinazolin-3(4H)-yl)piperidine-1-carboxamide] |
| < 10 | Cc1cc(CC(NC(=O)N2CCC(N3Cc4ccccc4NC3=O)CC2)c2ncc(Br)n2Cc2cc(F)cc(F)c2)cc2c[nH]nc12 (racemic) [Example 88, (±)-N-(1-(1-(3,5-Difluorobenzyl)-5-bromo-1H-imidazol-2-yl)-2-(7-methyl-2H-indazol-5-yl)ethyl)-4-(2-oxo-1,2-dihydroquinazolin-3(4H)-yl)piperidine-1-carboxamide] |
| < 10 | Cc1cn(Cc2cccc(F)c2)c(C(Cc2cc(C)c3[nH]ncc3c2)NC(=O)N2CCC(N3Cc4ccccc4NC3=O)CC2)n1 (racemic) [Example 89, (±)-N-(1-(1-(3-Fluorobenzyl)-4-methyl-1H-imidazol-2-yl)-2-(7-methyl-1H-indazol-5-yl)ethyl)-4-(2-oxo-1,2-dihydroquinazolin-3(4H)-yl)piperidine-1-carboxamide] |
| 100 to 1000 | Cc1c[nH]c(C(Cc2cc(C)c3[nH]ncc3c2)NC(=O)N2CCC(N3Cc4ccccc4NC3=O)CC2)n1 (racemic) [Example 90, (±)-N-(1-(4-Methyl-1H-imidazol-2-yl)-2-(7-methyl-1H-indazol-5-yl)ethyl)-4-(2-oxo-1,2-dihydroquinazolin-3(4H)-yl)piperidine-1-carboxamide] |
| < 10 | Cc1cc(CC(NC(=O)N2CCC(N3Cc4ccccc4NC3=O)CC2)c2nccn2Cc2cccnc2)cc2cn[nH]c12 (racemic) [Example 91, (±)-N-(2-(7-Methyl-1H-indazol-5-yl)-1-(1-(pyridin-3-ylmethyl)-1H-imidazol-2-yl)ethyl)-4-(2-oxo-1,2-dihydroquinazolin-3(4H)-yl)piperidine-1-carboxamide] |
| < 10 | Cc1cc(CC(NC(=O)N2CCC(N3Cc4ccccc4NC3=O)CC2)c2nccn2Cc2ccccn2)cc2cn[nH]c12 (racemic) [Example 92, (±)-N-(2-(7-Methyl-1H-indazol-5-yl)-1-(1-(pyridin-2-ylmethyl)-1H-imidazol-2-yl)ethyl)-4-(2-oxo-1,2-dihydroquinazolin-3(4H)-yl)piperidine-1-carboxamide] |
